These results are taken from PMC10384572, “Marine Meroterpenoids Isolated from Gongolaria abies-marina Induce Programmed Cell Death in Naegleria fowleri” (Pharmaceuticals, 2023).

Molecules are shown by their SMILES. Some results are limits rather than exact numbers.

As a reminder, the IC50 is the concentration that inhibits the measured activity by half. As usually defined, the CC50 is the concentration at which the toxic effect on the cells reaches its halfway point. Read a low CC50 as greater toxicity to the cells.

The subject of series [1] is N. fowleri ATCC® 30808. Kind of series: In vitro activity against N. fowleri trophozoites (alamarBlue), strain ATCC 30808. The class given is cell-based, Naegleria fowleri. As to conditions: for IC50: Naegleria fowleri, ATCC30808, N. fowleri trophozoites, 48 h, alamarBlue, mean ± SD, read-out: IC50 ATCC® 30808; for Anti-Naegleria activity (in words): both tested strains of N. fowleri. As to the method: (§1) The in vitro activity against N. fowleri trophozoites was evaluated in two different strains from the American Type Culture Collection (LG Promochem, Barcelona, Spain), ATCC® 30808™ and ATCC® 30215™. Cells were axenically grown in 2% Bactocasitone (w/v) medium (Thermo Fisher Scientific, Madrid, Spain) at 37 °C. Moreover, 10% (v/v) of fetal bovine serum (FBS) 0.3 μg/mL of Penicillin G Sodium Salt and 0.5 mg/mL of Streptomycin sulphate (Sigma-Aldrich, Madrid, Spain) were also added to the Bactocasitone medium.
(§2) For these assays, a colorimetric assay was conducted using the alamarBlue® reagent. Briefly, N. fowleri trophozoites were seeded in duplicate in a 96-well microtiter plate. After that, different concentrations of the evaluated meroterpenoids diluted in fresh Bactocasitone were added to the wells. The negative control consisted on the trophozoites incubated with the medium alone. Lastly, the alamarBlue® (Life Technologies, Madrid, Spain) reagent was added. Plates were incubated in slight agitation at 37 °C. After 48 h, the fluorescence of the wells was analyzed in an EnSpire Multimode Plate Reader (Perkin Elmer, Madrid, Spain) using a wavelength of excitation of 570 nm and a wavelength of emission of 585 nm.
(§3) In order to calculate the IC50 and IC90, a nonlinear regression analysis with a 95% confidence limit was performed.
(§4) The in vitro IC50, IC90, and CC50 of the compounds were determined by a non-linear regression with a 95% confidence limit. The SigmaPlot 12.0 software (Systat Sofware Inc., London, UK) was used to perform the data analysis using a paired two-tailed t-test. Values of p < 0.05 were considered significant. The data represent the mean value and the SD of the conducted three different experiments.
(In general: Alamar Blue is a resazurin reagent that responds to reducing activity.)

Series [2] deals with N. fowleri ATCC® 30215. The series is described as follows: In vitro activity against N. fowleri trophozoites (alamarBlue), strain ATCC 30215. The class given is cell-based. As to conditions: Naegleria fowleri, ATCC30215, 48 h, mean ± SD. As to the method:
as §1, §2, §3, §4

The nature of series [3]: In vitro cytotoxicity against murine macrophages (alamarBlue). It is filed as cell-based. As to conditions: mouse, J774A.1 murine macrophages (ATCC TIB-67), murine macrophages J774A.1, 24 h, mean ± SD. As to the method: Murine macrophages from the J774A.1 cell line (ATCC® TIB-67) were maintained in Dulbecco’s Modified Eagle’s medium (DMEM) in order to evaluate the toxicity of the compounds. In addition, 10% (v/v) FBS and 10 μg/mL gentamicin (Sigma-Aldrich, Madrid, Spain) were added to the growth medium. Cells were grown in a 5% CO2 atmosphere at 37 °C.
For the cytotoxicity assays, the same protocol as detailed in Section 4.4 above was used. Murine macrophages were incubated with serial dilutions of the evaluated compounds at 37 °C in a 5% CO2 atmosphere over 24 h. The obtained data were analyzed as described in the previous section in order to calculate the CC50.
as §4

In series [4] the test system is Acanthamoeba. Also on record: method as in PMID 36916403. As to conditions: cited from earlier work.

`C[C@@H]1[C@H](O)[C@@H](C)/C=C/C=C/C=C/C=C/C=C/C=C/C=C/[C@H](O[C@@H]2O[C@H](C)[C@@H](O)[C@H](N)[C@@H]2O)C[C@@H]2O[C@](O)(C[C@@H](O)C[C@@H](O)[C@H](O)CC[C@@H](O)C[C@@H](O)CC(=O)O[C@H]1C)C[C@H](O)[C@H]2C(=O)O` [Amphotericin B, amphotericin B, reference compound]: the IC50 in series [1] was 0.12 ± 0.03 µM; in series [2] it was 0.16 ± 0.03 µM. Moreover, in series [3], the CC50 at 24 h is > 200 µM.
`COc1c(C)cc(O)cc1C/C=C(\C)CC(=O)/C=C(\C)CCC[C@@H](C)[C@H]1C[C@@H](O)C(C)(C)O1` [Gongolarone A (4), gongolarone A]: in series [1], the IC50 is > 100 µM and the “Anti-Naegleria activity (in words)” value is reported as “no anti-Naegleria activity”. For the same molecule, the CC50 at 24 h in series [3] is > 400 µM. Also, the “Activity against tested species of Acanthamoeba (in words)” value in series [4] is given as “most active”.
Regarding `COc1c(C)cc(O)cc1CC/C(C)=C/C(=O)/C=C(\C)CCC[C@@H](C)C(=O)/C=C/C(C)(C)O` [Gongolarone C (5), gongolarone C], the IC50 in series [1] was > 100 µM. Besides, the “Anti-Naegleria activity (in words)” value was “no anti-Naegleria activity” in series [1] (listed as 5) and “loss of activity” in series [1] (listed as gongolarone C (5)). For the same molecule, in series [3], the CC50 at 24 h was > 400 µM. Moreover, in series [4], the “Activity against tested species of Acanthamoeba (in words)” value is on record as “most active”.
`CCCCCCCCCCCCCCCCOP(=O)([O-])OCC[N+](C)(C)C` [Miltefosine, miltefosine, reference compound]: the IC50 in series [1] is 38.7 ± 4.23 µM; in series [2] it was 81.6 ± 7.23 µM. This molecule showed a 50% cytotoxic concentration (CC50) at 24 h in series [3] of 128 ± 8.85 µM.
